ChEMBL document CHEMBL2440076, “New triarylpyrazoles as broad-spectrum anticancer agents: design, synthesis, and biological evaluation” (Eur J Med Chem, 2013)

Assays:
Type in all cases: functional
OVCAR-3 = assay: Growth inhibition of human OVCAR3 cells assessed as cell growth at 10^-6 M after 48 hrs by sulforhodamine B assay; conditions: OVCAR-3, 48 h, read-out: Activity
PC-3 = assay: Growth inhibition of human PC3 cells assessed as cell growth at 10^-7 M after 48 hrs by sulforhodamine B assay; conditions: PC-3, 48 h, read-out: Activity
DU-145 = assay: Growth inhibition of human DU145 cells assessed as cell growth at 10^-5 M after 48 hrs by sulforhodamine B assay; conditions: DU-145, 48 h, read-out: Activity
M14 = assay: Growth inhibition of human M14 cells assessed as cell growth at 10^-6 M after 48 hrs by sulforhodamine B assay; conditions: M14, 48 h, read-out: Activity
MDA-MB-468 = assay: Growth inhibition of human MDA-MB-468 cells assessed as cell growth at 10^-8 M after 48 hrs by sulforhodamine B assay; conditions: MDA-MB-468, 48 h, read-out: Activity
MDA-MB-435 = assay: Growth inhibition of human MDA-MB-435 cells assessed as cell growth at 10^-5 M after 48 hrs by sulforhodamine B assay; conditions: MDA-MB-435, 48 h, read-out: Activity
SR = assay: Growth inhibition of human SR cells assessed as cell growth at 10^-8 M after 48 hrs by sulforhodamine B assay; conditions: read-out: Activity
[1] = Growth inhibition of human NCI-ADR-RES cells assessed as cell growth at 10^-4 M after 48 hrs by sulforhodamine B assay; conditions: read-out: Activity

Row | SMILES | growth at 1 µM (OVCAR-3) [%] | growth at 0.1 µM (PC-3) [%] | growth at 10 µM (DU-145) [%] | growth at 1 µM (M14) [%] | growth at 0.01 µM (MDA-MB-468) [%] | growth at 10 µM (MDA-MB-435) [%] | growth at 0.01 µM (SR) [%] | growth at 100 µM [1] [%]
1 | COc1cc(-c2nn(-c3cccc(NC(=O)c4ccccc4)c3)cc2-c2ccncc2)ccc1Cl | 4 | 86 | 13 | 37 | 90 | -48 | 94 | –
2 | COc1cc(-c2nn(-c3cccc(NC(=O)c4ccc(N5CCOCC5)c(C(F)(F)F)c4)c3)cc2-c2ccncc2)ccc1Cl | – | 73 | 13 | 35 | 95 | -36 | 91 | 2
